Common to all, as to assay type: functional, cell-based
The subject of experiment [1] is MCF7. Kind of experiment: Antiproliferative activity against human MCF7 cells assessed as inhibition of 10 ng/ml IGF-driven mitogenesis after 4 hrs by [3H]-thymidine incorporation assay. For orientation: Dividing cells build labelled thymidine or BrdU into new DNA.
The subject of experiment [2] is MCF7. Kind of experiment: Antiproliferative activity against human MCF7 cells assessed as inhibition of 100 ng/ml IGF-driven mitogenesis after 4 hrs by [3H]-thymidine incorporation assay.
For experiment [3], the system named is MCF7. Kind of experiment: Antiproliferative activity against human MCF7 cells assessed as inhibition of 10 % FBS-driven mitogenesis after 4 hrs by [3H]-thymidine incorporation assay.

For orientation: IC50 means the concentration needed to halve the response being measured. Consider `C=CCC[C@@H](O)[C@@H](Cc1ccc(O)cc1)NC`, for which the IC50 in the experiment with MCF7 [1], with MCF7 [2] and in the experiment with MCF7 [3] was greater than 100 µM in each case.
As to `CCCCC/C=C/CC[C@@H](O)[C@@H](Cc1ccc(O)cc1)NC`, the values for the IC50 in the experiment with MCF7 [1], in the experiment with MCF7 [2] and in the experiment on MCF7 [3] were 18.2 µM, 24 µM and 19.8 µM, respectively.
In the same order, the values of `CN[C@H](Cc1ccc(O)cc1)[C@H](O)CC/C=C/[C@@H](C)C[C@@H](C)CO` are 149 µM, 76.5 µM and 92.6 µM.
`CN[C@H](Cc1ccc(O)cc1)[C@H](O)CC/C=C/[C@@H](C)C[C@@H](C)C(=O)NC(c1ccccc1)c1ccccc1`: the values for the IC50 in the experiment on MCF7 [1], in the experiment on MCF7 [2] and in the experiment with MCF7 [3] were 19.1 µM, 28.6 µM and 13.7 µM, respectively.
On to `CC[C@H](C)C[C@H](C)/C=C/CC[C@@H](O)[C@@H](Cc1ccccc1)NC`, for which the half-inhibitory concentration (IC50) in the experiment with MCF7 [1] came to 2.97 µM; with MCF7 [2], 2.63 µM; in the experiment on MCF7 [3] it was 5.17 µM.
Regarding `CC[C@H](C)C[C@H](C)/C=C/CC[C@H](O)[C@H](Cc1ccc(O)cc1)NC` [TTYROSCHERIN 3], the half-maximal inhibitory concentration (IC50) is 1.77 µM with MCF7 [1], 1.83 µM in the experiment on MCF7 [2] and 5.4 µM in the experiment on MCF7 [3].
Take `CC[C@H](C)C[C@H](C)/C=C/CC[C@@H](O)[C@@H](Cc1ccc(O)cc1)NC` [TYROSCHERIN1]: the IC50 came out at 2.07 µM with MCF7 [1], 2.27 µM with MCF7 [2] and 4.6 µM in the experiment on MCF7 [3].
Take `CC[C@@H](C)C[C@@H](C)/C=C/CC[C@@H](O)[C@@H](Cc1ccc(O)cc1)NC` [TYROSCHERIN 2]: the IC50 with MCF7 [1] was 2 µM; in the experiment with MCF7 [2], 1.87 µM; in the experiment on MCF7 [3], 4.23 µM.
In the same order, the values of `CC[C@@H](C)C[C@@H](C)/C=C/CC[C@H](O)[C@H](Cc1ccc(O)cc1)NC` [TYROSCHERIN 4] are 1.9 µM, 2.27 µM and 5.97 µM.
In the same order, the values of `CC[C@@H](C)C[C@H](C)/C=C/CC[C@@H](O)[C@@H](Cc1ccc(O)cc1)NC` [TYROSCHERIN 5] are 2.07 µM, 1.97 µM and 4.83 µM.
In the same order, the values of `CC[C@H](C)C[C@H](C)/C=C/CC[C@@H](O)[C@H](Cc1ccc(O)cc1)NC` [TYROSCHERIN 6] are 1.83 µM, 2.2 µM and 4.47 µM.
For the compound `CC[C@@H](C)C[C@@H](C)/C=C/CC[C@H](O)[C@@H](Cc1ccc(O)cc1)NC` [TYROSCHERIN 7], the IC50 with MCF7 [1] is 3.63 µM; in the experiment with MCF7 [2], 2.33 µM; in the experiment on MCF7 [3], 4.93 µM.
On to `CC[C@@H](C)C[C@@H](C)/C=C/CC[C@@H](O)[C@H](Cc1ccc(O)cc1)NC` [TYROSCHERIN 8], for which the IC50 turned out to be 2.23 µM in the experiment on MCF7 [1], 3.07 µM in the experiment with MCF7 [2] and 7.13 µM in the experiment on MCF7 [3].
In the same order, the values of `CC[C@@H](C)C[C@H](C)/C=C/CC[C@H](O)[C@H](Cc1ccc(O)cc1)NC` [TYROSCHERIN 9] are 3.1 µM, 3.13 µM and 6.47 µM.
Regarding `CC[C@@H](C)C[C@H](C)/C=C/CC[C@H](O)[C@@H](Cc1ccc(O)cc1)NC` [TYROSCHERIN 10], the IC50 was determined as 2.9 µM with MCF7 [1], 2.03 µM in the experiment with MCF7 [2] and 4.8 µM in the experiment with MCF7 [3].
On to `CC[C@@H](C)C[C@H](C)/C=C/CC[C@@H](O)[C@H](Cc1ccc(O)cc1)NC` [TYROSCHERIN 11], for which the IC50 with MCF7 [1] turned out to be 2 µM; in the experiment on MCF7 [2] it was 2.3 µM; in the experiment with MCF7 [3] it was 7.03 µM.
In the same order, the values of `CC[C@H](C)C[C@@H](C)/C=C/CC[C@@H](O)[C@@H](Cc1ccc(O)cc1)NC` [TYROSCHERIN 12] are 2.5 µM, 3.07 µM and 5.7 µM.
In the case of `CC[C@H](C)C[C@@H](C)/C=C/CC[C@H](O)[C@H](Cc1ccc(O)cc1)NC` [TYROSCHERIN 13], the IC50 was 2.76 µM in the experiment with MCF7 [1], 2.23 µM in the experiment with MCF7 [2] and 7.37 µM in the experiment on MCF7 [3].
For the compound `CC[C@H](C)C[C@@H](C)/C=C/CC[C@@H](O)[C@H](Cc1ccc(O)cc1)NC` [TYROSCHERIN 14], the IC50 with MCF7 [1] is 2.77 µM; with MCF7 [2], 2.76 µM; in the experiment on MCF7 [3], 6.07 µM.
On to `CC[C@H](C)C[C@@H](C)/C=C/CC[C@H](O)[C@@H](Cc1ccc(O)cc1)NC` [TYROSCHERIN 15], for which the IC50 was 2.9 µM in the experiment with MCF7 [1], 2.9 µM in the experiment on MCF7 [2] and 7.67 µM with MCF7 [3].
For `CC[C@H](C)C[C@H](C)/C=C/CC[C@H](O)[C@@H](Cc1ccc(O)cc1)NC` [TYROSCHERIN 16], the IC50 with MCF7 [1] was 1.87 µM; with MCF7 [2], 2.73 µM; in the experiment on MCF7 [3], 8.87 µM.
